# From ChEMBL document CHEMBL1156482, “Molecular mechanism of action of monocyclam versus bicyclam non-peptide antagonists in the CXCR4 chemokine receptor” (J Biol Chem, 2007)
# pKi: −log10 of the molar value.
# Assays:
# [1] = system: C-X-C chemokine receptor type 4 (Homo sapiens), P61073 [D171N]; assay: (§1) Antagonist activity at human CXCR4 D171N mutant expressed in COS7 cells coexpressing G protein Gqi4myr assessed as inhibition of CXCL12-induced phosphatidylinositol turnover; type: functional, cell-based; settings: COS-7
# [2] = molecular target: C-X-C chemokine receptor type 4 (Homo sapiens, UniProt P61073, D171N); assay: as §1; type: functional, cell-based, COS-7
# [3] = system: C-X-C chemokine receptor type 4 (Homo sapiens), P61073 [D262N]; assay: (§2) Antagonist activity at human CXCR4 D262N mutant expressed in COS7 cells coexpressing G protein Gqi4myr assessed as inhibition of CXCL12-induced phosphatidylinositol turnover; type: functional, cell-based; settings: COS-7
# [4] = molecular target: C-X-C chemokine receptor type 4 (Homo sapiens, UniProt P61073, D262N); assay: as §2; type: functional, cell-based, COS-7
# [5] = system: C-X-C chemokine receptor type 4 (Homo sapiens), P61073 [I284A]; assay: (§3) Antagonist activity at human CXCR4 I284A mutant expressed in COS7 cells coexpressing G protein Gqi4myr assessed as inhibition of CXCL12-induced phosphatidylinositol turnover; type: functional, cell-based; settings: COS-7
# [6] = molecular target: C-X-C chemokine receptor type 4 (Homo sapiens, UniProt P61073, I284A); assay: as §3; type: functional, cell-based, COS-7
# [7] = molecular target: C-X-C chemokine receptor type 4 (Homo sapiens, UniProt P61073, T287A); assay: (§4) Antagonist activity at human CXCR4 T287A mutant expressed in COS7 cells coexpressing G protein Gqi4myr assessed as inhibition of CXCL12-induced phosphatidylinositol turnover; type: functional, cell-based, COS-7
# Sequence of C-X-C chemokine receptor type 4 (Homo sapiens, UniProt P61073, T287A) (P61073 whole entry T287A): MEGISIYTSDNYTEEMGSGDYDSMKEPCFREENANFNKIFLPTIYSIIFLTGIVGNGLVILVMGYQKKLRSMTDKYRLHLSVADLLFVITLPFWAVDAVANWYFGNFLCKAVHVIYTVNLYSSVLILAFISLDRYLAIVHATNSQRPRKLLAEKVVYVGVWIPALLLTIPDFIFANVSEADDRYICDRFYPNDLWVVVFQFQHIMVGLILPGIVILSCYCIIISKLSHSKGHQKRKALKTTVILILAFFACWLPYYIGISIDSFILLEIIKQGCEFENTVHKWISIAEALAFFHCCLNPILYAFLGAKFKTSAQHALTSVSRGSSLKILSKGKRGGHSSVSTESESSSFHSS
# [8] = system: C-X-C chemokine receptor type 4 (Homo sapiens), P61073 [T287A]; assay: as §4; type: functional, cell-based; settings: COS-7
# Sequence of C-X-C chemokine receptor type 4 (Homo sapiens), P61073 [T287A] (P61073 whole entry T287A): as above
# [9] = molecular target: C-X-C chemokine receptor type 4 (Homo sapiens, UniProt P61073, H113A); assay: (§5) Antagonist activity at human CXCR4 H113A mutant expressed in COS7 cells coexpressing G protein Gqi4myr assessed as inhibition of CXCL12-induced phosphatidylinositol turnover; type: functional, cell-based, COS-7
# [10] = system: C-X-C chemokine receptor type 4 (Homo sapiens), P61073 [H113A]; assay: as §5; type: functional, cell-based; settings: COS-7
# [11] = system: C-X-C chemokine receptor type 4 (Homo sapiens), P61073 [I259A]; assay: (§6) Antagonist activity at transmembrane domain 6 of human CXCR4 I259A mutant expressed in COS7 cells coexpressing G protein Gqi4myr assessed as inhibition of CXCL12-induced phosphatidylinositol turnover; type: functional, cell-based; settings: COS-7
# [12] = molecular target: C-X-C chemokine receptor type 4 (Homo sapiens, UniProt P61073, I259A); assay: as §6; type: functional, cell-based, COS-7
# [13] = molecular target: C-X-C chemokine receptor type 4 (Homo sapiens, UniProt P61073); assay: Antagonist activity at human wild type CXCR4 expressed in COS7 cells coexpressing G protein Gqi4myr assessed as inhibition of CXCL12-induced phosphatidylinositol turnover; type: functional, cell-based, COS-7; settings: for logIC50: COS-7
# Sequence of C-X-C chemokine receptor type 4 (Homo sapiens, UniProt P61073) (P61073 whole entry): as the sequence (P61073 whole entry T287A) above, with A287T counted along it
# [14] = system: C-X-C chemokine receptor type 4 (Homo sapiens), P61073 [A175F]; assay: (§7) Antagonist activity at human CXCR4 A175F mutant expressed in COS7 cells coexpressing G protein Gqi4myr assessed as inhibition of CXCL12-induced phosphatidylinositol turnover; type: functional, cell-based; settings: COS-7
# [15] = molecular target: C-X-C chemokine receptor type 4 (Homo sapiens, UniProt P61073, A175F); assay: as §7; type: functional, cell-based, COS-7
# [16] = system: C-X-C chemokine receptor type 4 (Homo sapiens), P61073 [E288A]; assay: (§8) Antagonist activity at human CXCR4 E288A mutant expressed in COS7 cells coexpressing G protein Gqi4myr assessed as inhibition of CXCL12-induced phosphatidylinositol turnover; type: functional, cell-based; settings: COS-7
# [17] = molecular target: C-X-C chemokine receptor type 4 (Homo sapiens, UniProt P61073, E288A); assay: as §8; type: functional, cell-based, COS-7
# [18] = system: C-X-C chemokine receptor type 4 (Homo sapiens), P61073 [I259W]; assay: (§9) Antagonist activity at human CXCR4 I259W mutant expressed in COS7 cells coexpressing G protein Gqi4myr assessed as inhibition of CXCL12-induced phosphatidylinositol turnover; type: functional, cell-based; settings: COS-7
# [19] = molecular target: C-X-C chemokine receptor type 4 (Homo sapiens, UniProt P61073, I259W); assay: as §9; type: functional, cell-based, COS-7
# [20] = system: C-X-C chemokine receptor type 4 (Homo sapiens), P61073 [V196A]; assay: (§10) Antagonist activity at human CXCR4 V196A mutant expressed in COS7 cells coexpressing G protein Gqi4myr assessed as inhibition of CXCL12-induced phosphatidylinositol turnover; type: functional, cell-based; settings: COS-7
# Sequence of C-X-C chemokine receptor type 4 (Homo sapiens), P61073 [V196A] (P61073 whole entry V196A): as the sequence (P61073 whole entry T287A) above, with V196A, A287T counted along it
# [21] = molecular target: C-X-C chemokine receptor type 4 (Homo sapiens, UniProt P61073, V196A); assay: as §10; type: functional, cell-based, COS-7
# Sequence of C-X-C chemokine receptor type 4 (Homo sapiens, UniProt P61073, V196A) (P61073 whole entry V196A): as the sequence (P61073 whole entry T287A) above, with V196A, A287T counted along it
# [22] = system: C-X-C chemokine receptor type 4 (Homo sapiens), P61073 [F172A]; assay: (§11) Antagonist activity at human CXCR4 F172A mutant expressed in COS7 cells coexpressing G protein Gqi4myr assessed as inhibition of CXCL12-induced phosphatidylinositol turnover; type: functional, cell-based; settings: COS-7
# [23] = molecular target: C-X-C chemokine receptor type 4 (Homo sapiens, UniProt P61073, F172A); assay: as §11; type: functional, cell-based, COS-7
# [24] = system: C-X-C chemokine receptor type 4 (Homo sapiens), P61073 [Q200W]; assay: (§12) Antagonist activity at human CXCR4 Q200W mutant expressed in COS7 cells coexpressing G protein Gqi4myr assessed as inhibition of CXCL12-induced phosphatidylinositol turnover; type: functional, cell-based; settings: COS-7
# Sequence of C-X-C chemokine receptor type 4 (Homo sapiens), P61073 [Q200W] (P61073 whole entry Q200W): as the sequence (P61073 whole entry T287A) above, with Q200W, A287T counted along it
# [25] = molecular target: C-X-C chemokine receptor type 4 (Homo sapiens, UniProt P61073, Q200W); assay: as §12; type: functional, cell-based, COS-7
# Sequence of C-X-C chemokine receptor type 4 (Homo sapiens, UniProt P61073, Q200W) (P61073 whole entry Q200W): as the sequence (P61073 whole entry T287A) above, with Q200W, A287T counted along it
# [26] = system: C-X-C chemokine receptor type 4 (Homo sapiens), P61073 [H281A]; assay: (§13) Antagonist activity at human CXCR4 H281A mutant expressed in COS7 cells coexpressing G protein Gqi4myr assessed as inhibition of CXCL12-induced phosphatidylinositol turnover; type: functional, cell-based; settings: COS-7
# [27] = molecular target: C-X-C chemokine receptor type 4 (Homo sapiens, UniProt P61073, H281A); assay: as §13; type: functional, cell-based, COS-7
# [28] = molecular target: C-X-C chemokine receptor type 4 (Homo sapiens, UniProt P61073, H203A); assay: (§14) Antagonist activity at human CXCR4 H203A mutant expressed in COS7 cells coexpressing G protein Gqi4myr assessed as inhibition of CXCL12-induced phosphatidylinositol turnover; type: functional, cell-based, COS-7
# Sequence of C-X-C chemokine receptor type 4 (Homo sapiens, UniProt P61073, H203A) (P61073 whole entry H203A): as the sequence (P61073 whole entry T287A) above, with H203A, A287T counted along it
# [29] = system: C-X-C chemokine receptor type 4 (Homo sapiens), P61073 [H203A]; assay: as §14; type: functional, cell-based; settings: COS-7
# Sequence of C-X-C chemokine receptor type 4 (Homo sapiens), P61073 [H203A] (P61073 whole entry H203A): as the sequence (P61073 whole entry T287A) above, with H203A, A287T counted along it
# [30] = molecular target: C-X-C chemokine receptor type 4 (Homo sapiens, UniProt P61073, L120F); assay: (§15) Antagonist activity at human CXCR4 L120F mutant expressed in COS7 cells coexpressing G protein Gqi4myr assessed as inhibition of CXCL12-induced phosphatidylinositol turnover; type: functional, cell-based, COS-7
# Sequence of C-X-C chemokine receptor type 4 (Homo sapiens, UniProt P61073, L120F) (P61073 whole entry L120F): as the sequence (P61073 whole entry T287A) above, with L120F, A287T counted along it
# [31] = system: C-X-C chemokine receptor type 4 (Homo sapiens), P61073 [L120F]; assay: as §15; type: functional, cell-based; settings: COS-7
# Sequence of C-X-C chemokine receptor type 4 (Homo sapiens), P61073 [L120F] (P61073 whole entry L120F): as the sequence (P61073 whole entry T287A) above, with L120F, A287T counted along it
# [32] = molecular target: C-X-C chemokine receptor type 4 (Homo sapiens, UniProt P61073, Y255A); assay: (§16) Antagonist activity at human CXCR4 Y255A mutant expressed in COS7 cells coexpressing G protein Gqi4myr assessed as inhibition of CXCL12-induced phosphatidylinositol turnover; type: functional, cell-based, COS-7
# Sequence of C-X-C chemokine receptor type 4 (Homo sapiens, UniProt P61073, Y255A) (P61073 whole entry Y255A): as the sequence (P61073 whole entry T287A) above, with Y255A, A287T counted along it
# [33] = system: C-X-C chemokine receptor type 4 (Homo sapiens), P61073 [Y255A]; assay: as §16; type: functional, cell-based; settings: COS-7
# Sequence of C-X-C chemokine receptor type 4 (Homo sapiens), P61073 [Y255A] (P61073 whole entry Y255A): as the sequence (P61073 whole entry T287A) above, with Y255A, A287T counted along it
# [34] = system: C-X-C chemokine receptor type 4 (Homo sapiens), P61073 [Q200A]; assay: (§17) Antagonist activity at human CXCR4 Q200A mutant expressed in COS7 cells coexpressing G protein Gqi4myr assessed as inhibition of CXCL12-induced phosphatidylinositol turnover; type: functional, cell-based; settings: COS-7
# [35] = molecular target: C-X-C chemokine receptor type 4 (Homo sapiens, UniProt P61073, Q200A); assay: as §17; type: functional, cell-based, COS-7
logIC50 [1],pKi [2],logIC50 [3],pKi [4],logIC50 [5],pKi [6],pKi [7],logIC50 [8],pKi [9],logIC50 [10],logIC50 [11],pKi [12],pKi [13],logIC50 [13],logIC50 [14],pKi [15],logIC50 [16],pKi [17],logIC50 [18],pKi [19],SMILES,further results
-3.97,3.97,-5.54,5.54,-5.64,5.64,5.48,-5.49,3.56,-3.56,-5.6,5.60,4.70,-4.69,-2.65,2.65,-3.52,3.52,-4.62,4.62,Cc1ccc(CN2CCCNCCNCCCNCC2)cc1,logIC50 [20]: -4.56; pKi [21]: 4.55; logIC50 [22]: -4.82; pKi [23]: 4.82; logIC50 [24]: -4.22; pKi [25]: 4.22; logIC50 [26]: -4.66; pKi [27]: 4.66; pKi [28]: 4.49; logIC50 [29]: -4.5; pKi [30]: 4.89; logIC50 [31]: -4.87; pKi [32]: 4.43; logIC50 [33]: -4.43; logIC50 [34]: -4.1; pKi [35]: 4.10
-4.85,4.85,-5.64,5.64,-6.38,6.38,6.47,-6.46,4.74,-4.74,-6.04,6.04,5.77,-5.76,-3.89,3.89,-4.96,4.96,-5.5,5.51,c1ccc(CNCc2ccc(CN3CCCNCCNCCCNCC3)cc2)cc1,logIC50 [20]: -5.88; pKi [21]: 5.89; logIC50 [22]: -5.92; pKi [23]: 6.77; logIC50 [24]: -5.14; pKi [25]: 5.14; logIC50 [26]: -5.75; pKi [27]: 5.74; pKi [28]: 5.14; logIC50 [29]: -5.14; pKi [30]: 6.36; logIC50 [31]: -6.36; pKi [32]: 5.06; logIC50 [33]: -5.05; logIC50 [34]: -4.91; pKi [35]: 4.92
